# Source: BindingDB's records for patent US20250352549 (Avelos Therapeutics, 2025)
# Target: T1, Serine/threonine-protein kinase greatwall (Human, UniProt Q96GX5)
# T1 sequence (Q96GX5 whole entry): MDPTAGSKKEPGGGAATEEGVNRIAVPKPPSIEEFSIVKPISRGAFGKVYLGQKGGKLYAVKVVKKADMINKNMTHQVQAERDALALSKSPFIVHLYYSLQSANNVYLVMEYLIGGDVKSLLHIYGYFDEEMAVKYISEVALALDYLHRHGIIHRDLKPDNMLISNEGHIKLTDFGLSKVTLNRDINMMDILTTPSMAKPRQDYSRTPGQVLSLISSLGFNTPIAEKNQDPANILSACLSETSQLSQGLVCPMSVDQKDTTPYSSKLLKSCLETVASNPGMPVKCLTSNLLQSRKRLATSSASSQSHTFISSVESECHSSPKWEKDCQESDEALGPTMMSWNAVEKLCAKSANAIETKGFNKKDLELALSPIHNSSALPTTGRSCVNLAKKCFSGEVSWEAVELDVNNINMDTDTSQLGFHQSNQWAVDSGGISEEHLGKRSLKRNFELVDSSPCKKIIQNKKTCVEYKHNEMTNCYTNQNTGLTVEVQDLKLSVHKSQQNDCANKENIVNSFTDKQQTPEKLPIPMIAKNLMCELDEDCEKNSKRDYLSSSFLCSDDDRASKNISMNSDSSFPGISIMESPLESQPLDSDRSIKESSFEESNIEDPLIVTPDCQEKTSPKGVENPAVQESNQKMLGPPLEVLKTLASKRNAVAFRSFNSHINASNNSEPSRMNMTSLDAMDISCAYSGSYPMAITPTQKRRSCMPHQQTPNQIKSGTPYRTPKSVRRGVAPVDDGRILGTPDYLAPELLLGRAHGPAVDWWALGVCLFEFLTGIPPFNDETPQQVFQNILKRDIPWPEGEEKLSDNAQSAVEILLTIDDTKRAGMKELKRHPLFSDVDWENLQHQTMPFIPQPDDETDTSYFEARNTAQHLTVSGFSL
# Experiment: MASTL Activity Assay
# Description: Wild-type human active MASTL (154 pM) was incubated in assay buffer (50 mM HEPES, 100 mM NaCl, 0.1 mM EGTA, 10 mM MgCl2, 0.01% Tween-20, 0.5 mM TCEP, pH 7.5) with biotin tagged 40-mer ENSA peptide (10 nM), test compound and ATP (18 μM) for 60 minutes at room temperature. Test compounds were assayed using a 12-point dose range consisting of a 0, DMSO control and 10 sequential doses consisting from 0.0005, 0.002, 0.005, 0.014, 0.04, 0.12, 0.37, 1.11, 3.33 and 10 μM. The DMSO concentration was the same (1%) in all samples. An equal volume of detection buffer (assay buffer+267.5 pM Ab-K, 1.25 nM SA-D2, 20 mM EDTA and 400 mM KF) was added to stop the reaction to make a final volume of 20 μl, RT for 60 mins. Activity was measured using a plate reader (PerkinElmer EnSight) by the FRET signal generated between SA-D2 (streptavidin-D2) and Ab-K (anti-phospho-Serine 67 ENSA antibody (rabbit polyclonal, using standard techniques by a commercial supplier) conjugated to Cryptate). HTRF reagents (CisBio) were prepared as per the manufacturer recommendations. The 40-mer biotin-tagged ENSA peptide (synthesised by Bionics) used was based around Serine 67 on ENSA ([…]).
row,SMILES,IC50
1,"Cc1ncc2ccc(-c3nc(N)nc(NC(Cc4cccc(Cl)c4Cl)c4nnn[nH]4)n3)cn12 (configuration not stated) [US20250352549, Example 21]",< 500 nM
2,"CNC(CNc1cc(-c2ccc3cnc(C)n3c2)nc(N)n1)c1cccc(Cl)c1Cl (configuration not stated) [US20250352549, Example 17]",< 500 nM
3,"CC(C)(Nc1nc(N)nc(-c2ccc3cnc(N)n3c2)n1)c1c[nH]c(C(F)(F)F)n1 [US20250352549, Example 11]",< 500 nM
4,"CNc1nc(NC(C)(C)c2ccn(C(F)F)n2)nc(-c2ccc3[nH]ncc3c2)n1 [US20250352549, Example 26]",< 500 nM
5,"[2H]C([2H])([2H])n1ncc2ccc(-c3nc(N)nc(NC(C)(C)c4ccn(C(F)F)n4)n3)cc21 [US20250352549, Example 9]",< 500 nM
6,"[2H]C([2H])([2H])Nc1nc(NC(CC)c2c[nH]c(C(F)(F)F)n2)nc(-c2ccc3cnc(C)n3c2)n1 (configuration not stated) [US20250352549, Example 5]",< 500 nM
7,"COC(=O)C(Cc1cccc(Cl)c1Cl)Nc1nc(N)nc(-c2ccc3cnc(C)n3c2)n1 (configuration not stated) [US20250352549, Example 4]",< 500 nM
8,"Nc1nc(NC(c2c[nH]c(C(F)(F)F)n2)C2CC2)nc(-c2ccc3[nH]ncc3c2)n1 (configuration not stated) [US20250352549, Example 32]",< 500 nM
9,"Cc1ncc2ccc(-c3nc(N)nc(NC(c4ccccc4)c4c[nH]c(C(F)(F)F)n4)n3)cn12 (configuration not stated) [US20250352549, Example 2]",> 1000 nM

# Other lines, results leading:
row,IC50,SMILES
1,> 1000 nM,"Cc1ncc2ccc(-c3nc(N)nc(NC(c4nc(C(F)(F)F)no4)C(C)C)n3)cn12 (configuration not stated) [US20250352549, Example 158]"
2,< 500 nM,"CNc1nc(NC(c2ccn(C(F)F)n2)C(C)C)nc(-c2ccc3cn[nH]c3c2)n1 (configuration not stated) [US20250352549, Example 171]"
3,< 500 nM,"CNc1ncc2ccc(-c3nc(N)nc(NC(C)(C)c4ccn(C(F)F)n4)n3)cn12 [US20250352549, Example 37]"
4,< 500 nM,"Nc1nc(NC(c2ccn(C(F)F)n2)C2CC2)nc(-c2ccc3[nH]ncc3c2)n1 (configuration not stated) [US20250352549, Example 33]"
5,< 500 nM,"Cc1nn(C)c2cc(-c3nc(N)nc(NC(c4c[nH]c(C(F)(F)F)n4)C(C)C)n3)ccc12 (configuration not stated) [US20250352549, Example 44]"
6,< 500 nM,"Cc1ncc2ccc(-c3nc(N)nc(NC(c4c[nH]c(C(F)(F)F)n4)C4CC4)n3)cn12 (configuration not stated) [US20250352549, Example 154]"
7,< 500 nM,"Cn1ncc2cc(-c3nc(N)nc(NC(C)(C)c4c[nH]c(C(F)(F)F)n4)n3)ccc21 [US20250352549, Example 46]"
8,< 500 nM,"CNc1nc(NC(C)(C)c2ccn(C(F)F)n2)nc(-c2ccc3cnc(C)n3c2)n1 [US20250352549, Example 135]"
9,< 500 nM,"Cc1nc(F)c2ccc(-c3nc(N)nc(NC(c4c[nH]c(C(F)(F)F)n4)C(C)C)n3)cn12 (configuration not stated) [US20250352549, Example 147]"
10,< 500 nM,"CNc1nc(NC(C)(C)c2ccn(C(F)F)n2)nc(-c2ccc3cnn(C)c3c2)n1 [US20250352549, Example 172]"
11,in the range around 750 nM,"Cc1ncc2ccc(-c3nc(N)nc(NCc4nc(C(F)(F)F)no4)n3)cn12 [US20250352549, Example 159]"
12,< 500 nM,"Cc1ncc2ccc(-c3nc(N)nc(NC(C)c4ccc(F)cn4)n3)cn12 (configuration not stated) [US20250352549, Example 139]"
13,< 500 nM,"CCC(Nc1nc(N)nc(-c2ccc3cnc(C)n3c2)n1)c1ccc(F)cn1 (configuration not stated) [US20250352549, Example 140]"
